In PMC9881157 (2023) one finds Kd data, which are given here for 2 compounds.

Holding throughout (experiment): RNA-DRaCALA titration
Assay [1] has as its system C16 (RNA, riboswitch) CAGAAGGGUACCUAGGGUUCCGUCCAUUUGAUUCAAGGGAGUCUGGACCAAGCGGUAUCGGCACCGGGAUAUGGUGUACACCGUGGGGAUAAAAGCCUCCAGCGGCAGGUUCUGAUGCAAAAAAAGCCACCGCCACCGCCACCGCCACCGCCACCGCCACCGCC
The following applies: 10 mM MgCl2; 20 mM Tris-HCl pH 7.5, 37 °C; 10 nM 32P-ligand.

In assay [2] the test system is C21 (RNA, riboswitch) UAAGAGGCUAACUAGGGUUCCGAUGGUUUCAUGCUGGUCCAAGCGUUAGCAAACAUACUGAGGAAGGUAUGUUACACCGUUAGUACAAAAGGCUCGGCGGGAGGUCUUAUCCUUAAAAAAGCCACCGCCACCGCCACCGCCACCGCCACCGCCACCGCC
Conditions: 10 mM MgCl2; 20 mM Tris-HCl pH 7.5, 37 °C; 10 nM 32P-ligand.

The subject of assay [3] is To-B (T. oceani ilvE, biotinylated) (RNA, riboswitch) AGGAAGUGUACCUUAGGGUUCCGGCCAUAAGGCGUCAGCGACCGAGCGGUACAAUCCGGGGAAACCCGGAACACCGUGAGCAUAAAAGGCUCCAGCGGCAAGUUCCUAAAAGAC
The following applies: 10 mM MgCl2; 20 mM Tris-HCl pH 7.5, 37 °C; 1 nM 32P-ppGpp.

The term Kd denotes the equilibrium constant for the complex coming apart. A high value points to weaker binding. As for `Nc1nc2c(ncn2[C@@H]2O[C@H](COP(=O)(O)OP(=O)(O)O)[C@@H](OP(=O)(O)OP(=O)(O)O)[C@H]2O)c(=O)[nH]1`, the results for the Kd in assay [1], in assay [2] and in assay [3] were 33 ± 3.7 nM, 654 ± 121 nM and 22.1 ± 1.6 nM, respectively.

Regarding `Nc1nc2c(ncn2[C@@H]2O[C@H](COP(=O)(O)OP(=O)(O)OP(=O)(O)O)[C@@H](OP(=O)(O)OP(=O)(O)O)[C@H]2O)c(=O)[nH]1`, the Kd in assay [1] turned out to be 137 ± 17 nM.
